Reference: BindingDB's records for doi:10.1016/j.bmcl.2006.06.087 (Fundp, 2006)

What follows are molecules tested against T1, Fatty-acid amide hydrolase 1 [30-579] (Rattus norvegicus, UniProt P97612) (assay: FAAH Inhibition Assay). Settings: pH 9; 37 °C.
T1 construct: 30-579
T1 sequence (P97612 whole entry): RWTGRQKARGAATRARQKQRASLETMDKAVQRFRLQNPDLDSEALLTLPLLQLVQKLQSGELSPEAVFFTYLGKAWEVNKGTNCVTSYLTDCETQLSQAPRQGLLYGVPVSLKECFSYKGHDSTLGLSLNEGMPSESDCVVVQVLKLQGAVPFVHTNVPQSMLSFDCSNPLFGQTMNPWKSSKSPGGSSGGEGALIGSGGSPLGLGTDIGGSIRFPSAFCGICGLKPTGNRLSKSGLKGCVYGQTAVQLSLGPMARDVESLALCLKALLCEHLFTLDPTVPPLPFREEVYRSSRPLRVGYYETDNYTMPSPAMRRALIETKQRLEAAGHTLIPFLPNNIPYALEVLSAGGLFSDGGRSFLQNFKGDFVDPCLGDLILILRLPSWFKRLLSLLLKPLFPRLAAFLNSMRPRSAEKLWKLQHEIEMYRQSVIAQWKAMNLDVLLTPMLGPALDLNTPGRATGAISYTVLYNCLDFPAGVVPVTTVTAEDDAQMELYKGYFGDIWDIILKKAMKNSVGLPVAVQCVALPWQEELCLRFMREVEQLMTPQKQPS
Experimental: The effect of the test compounds on the enzymatic hydrolysis of [3H]anandamide was evaluated by using rat brain homogenate preparations. [3H]Ethanolamine produced from [3H]AEA hydrolysis was used to calculate FAAH activity and was measured by scintillation counting of the aqueous phase after extraction of the incubation mixture. Data are expressed as the concentration exerting a half maximal inhibition (IC50).

Row | Compound | IC50 [µM]
1 | CCCCCCCCN1C(=O)C(c2ccc(Br)cc2)(c2ccc(Br)cc2)NC1=S [5,5-bis(4-bromophenyl)-3-octyl-2-sulfanylideneimidazolidin-4-one] | 589
2 | O=C1N(c2ccccc2)C(=S)NC1(c1ccccc1)c1ccccc1 [3,5,5-triphenyl-2-sulfanylideneimidazolidin-4-one] | 29.5
3 | CCCCCCN1C(=O)NC(c2ccccc2)(c2ccccc2)C1=O [3-hexyl-5,5-diphenylimidazolidine-2,4-dione] | 9.55
4 | CCCCCCN1C(=O)C(c2ccccc2)(c2ccccc2)NC1=S [3-hexyl-5,5-diphenyl-2-sulfanylideneimidazolidin-4-one] | 4.47

The next molecules have a lower IC50 than those just listed; values first:

Row | IC50 [µM] | Compound
5 | 0.000316 | O=C(CCCCCCc1ccccc1)c1nc2ncccc2o1 [7-phenyl-1-{pyrido[2,3-d][1,3]oxazol-2-yl}heptan-1-one]
6 | 0.01 | C#CCCCCCCCCCNC(=O)Oc1cccc(-c2cccc(C(N)=O)c2)c1 [3-(3-carbamoylphenyl)phenyl N-(undec-10-yn-1-yl)carbamate]
7 | 3.02 | CCCCCCCCN1C(=O)C(c2ccccc2)(c2ccccc2)NC1=S [3-octyl-5,5-diphenyl-2-sulfanylideneimidazolidin-4-one]
